8 compounds from ChEMBL document CHEMBL1135004, “Natural and synthetic geiparvarins are strong and selective MAO-B inhibitors. Synthesis and SAR studies” (Bioorg Med Chem Lett, 2002) can be followed below.

Series [1] addresses T1, Monoamine oxidase A (Homo sapiens, UniProt P21397).
T1 sequence (P21397 whole entry): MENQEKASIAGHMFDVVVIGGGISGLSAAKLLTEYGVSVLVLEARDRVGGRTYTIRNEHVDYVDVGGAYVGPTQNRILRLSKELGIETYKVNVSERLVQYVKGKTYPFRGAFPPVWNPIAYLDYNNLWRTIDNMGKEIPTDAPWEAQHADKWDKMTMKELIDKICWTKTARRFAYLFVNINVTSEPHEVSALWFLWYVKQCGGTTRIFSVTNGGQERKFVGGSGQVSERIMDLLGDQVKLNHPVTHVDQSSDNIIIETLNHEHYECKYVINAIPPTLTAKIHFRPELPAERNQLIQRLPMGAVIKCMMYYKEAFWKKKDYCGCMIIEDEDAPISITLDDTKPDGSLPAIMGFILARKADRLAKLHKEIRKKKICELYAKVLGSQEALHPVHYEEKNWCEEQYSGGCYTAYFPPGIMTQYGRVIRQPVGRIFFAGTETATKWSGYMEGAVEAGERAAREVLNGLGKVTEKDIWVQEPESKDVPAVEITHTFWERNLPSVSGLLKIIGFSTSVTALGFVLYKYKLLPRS
As to the kind of experiment: Inhibitory potency against Monoamine oxidase A at 10 uM.

For series [2], the target named is T2, Amine oxidase [flavin-containing] B (Homo sapiens, UniProt P27338).
T2 sequence (P27338 whole entry): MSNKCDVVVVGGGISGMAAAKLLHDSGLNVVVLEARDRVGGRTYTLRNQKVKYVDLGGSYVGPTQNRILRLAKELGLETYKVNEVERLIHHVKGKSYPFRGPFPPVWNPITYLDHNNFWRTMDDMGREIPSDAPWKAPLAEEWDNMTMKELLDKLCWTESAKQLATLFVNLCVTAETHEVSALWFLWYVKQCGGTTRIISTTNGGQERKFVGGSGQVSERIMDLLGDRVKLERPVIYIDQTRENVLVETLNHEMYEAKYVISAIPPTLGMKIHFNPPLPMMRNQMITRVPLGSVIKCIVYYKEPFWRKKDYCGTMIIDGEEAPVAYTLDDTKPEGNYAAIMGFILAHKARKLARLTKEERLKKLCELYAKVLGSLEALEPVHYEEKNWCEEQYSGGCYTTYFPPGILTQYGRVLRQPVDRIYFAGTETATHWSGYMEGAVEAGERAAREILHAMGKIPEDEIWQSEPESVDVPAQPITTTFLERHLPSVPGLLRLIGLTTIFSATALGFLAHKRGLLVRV
As to the kind of experiment: Inhibitory potency against Monoamine oxidase B.

The target of series [3] is T3, Amine oxidase [flavin-containing] A (Homo sapiens, UniProt P21397).
T3 sequence (P21397 whole entry): T1 sequence (P21397 whole entry)
As to the kind of experiment: Inhibitory potency against Monoamine oxidase A.

Series [4] has as its target T1, Monoamine oxidase A. As to the kind of experiment: Inhibitory potency against Monoamine oxidase A at 3 uM.

The structures appear in SMILES notation.

Turning to `C/C(=C\COc1ccc2c(C)c(C)c(=O)oc2c1)C1=CC(=O)C(C)(C)O1`, the inhibition at 10 µM against Monoamine oxidase A [1] was found to be 37%. The compound also gave an IC50 in series [2] of 129 nM.
The corresponding values for `CC(=O)/C=C/C=C/COc1ccc2ccc(=O)oc2c1` are 26% and 1700 nM.
`C/C(=C\COc1ccc2ccc(=O)oc2c1)C1=CC(=O)C(C)(C)O1` [GEIPARVARIN]: the figures for the IC50 in series [2] and in series [3] were 145 nM and 26900 nM, respectively.
The corresponding values for `Cc1cc2ccc(OC/C=C/C3=CC(=O)C(C)(C)O3)cc2oc1=O` are 589 nM and 15100 nM.
The compound `Cc1cc(=O)oc2cc(OC/C=C/C3=CC(=O)C(C)(C)O3)ccc12` displayed an inhibition at 10 µM against Monoamine oxidase A [1] of 27%. In addition, it took 170 nM to reach half-maximal inhibition in series [2] (IC50).
As for `CC1(C)OC(/C=C/COc2ccc3ccc(=O)oc3c2)=CC1=O`, the half-inhibitory concentration (IC50) was 28.2 nM in series [2] and 24000 nM in series [3].
Consider `CC1(c2ccccc2)OC(/C=C/COc2ccc3ccc(=O)oc3c2)=CC1=O` (stereo unspecified), for which 3 µM produced 0% inhibition on Monoamine oxidase A [4]. Besides, it took 1510 nM to reach half-maximal inhibition in series [2] (IC50).
As to `Cc1c(C)c2ccc(OC/C=C/C3=CC(=O)C(C)(C)O3)cc2oc1=O`, the IC50 was 631 nM in series [2] and 11200 nM in series [3].
